Results on 19 compounds are retold here after patent US9089129B2, “Non-aerosol foaming alcohol hand sanitizer” (AMERICAN STERILIZER COMPANY, priority 2011, dated 2015).

Series [1] can be described thus: Foam quality and stability screen in 70% w/w ethanol solution. Type of series: physicochemical. More on the design: key: Poor: little to no foam generated; Moderate: some foam generated, and/or foam generated collapsed rapidly; Good: large amount of foam was generated and foam was stable (did not collapse rapidly). The settings on record: approximately one gram of component in 15 grams of 70% w/w ethanol solution (aqueous), shaken by hand for 15 seconds. Here is the method:
A number of different components were screened to evaluate their ability to create a stable foam in a 70% w/w ethanol solution (aqueous). For this evaluation, approximately one gram of each component was added to 15 grams of the ethanol solution in a vial.

A further series concerns Serratia marcescens. The series is described as follows: Pigskin model, 1 and 5 inoculation/treatment cycles. The settings on record: FIG. 4. The protocol:
Each sample was evaluated at two different inoculation/treatment cycles, i.e., at 1 inoculation/treatment and 5 inoculations/treatments. Tests were completed using the pigskin model, the inoculant, Serratia marcescens, and 1 and 5 inoculation/treatment cycles. The “pigskin model” is a method designed to simulate a HCPHW test using pigskins prepared according to the method described in U.S. Pat. No. 7,985,773 to […] et al., incorporated herein by reference. In this example, pigskin pairs were inoculated with bacteria, rubbed together for 15 seconds, and allowed to air dry for 1 minute. The two different ethanol solutions having concentrations of 62% w/w and 70% w/w and two different product formulations N and O, one having 62% w/w ethanol (N) and the other having 70% w/w ethanol (O), were applied to pairs of pigskins (0.2 ml per pair/0.1 ml per piece). The pairs of pigskins (having the same treatment) were rubbed together for 30 seconds and allowed to air dry for 4 minutes. Neutralizer was then applied to the pigskins, they were debrided for 30 seconds, serially diluted and plated.

For `CCCCCCCCCCCCCCCCCCCCCC[N+](C)(C)C.COS(=O)(=O)[O-]` [Behentrimonium Methosulfate], in series [1], the “Foam Profile” value is “Poor”.
On the same count and under the same terms, as for `CCCCCCCCCC[N+](C)(C)CCCCCCCCCC.[Cl-]` [Didecyl dimethyl ammonium chloride], the entry is “Poor”.
On the same count and under the same terms, next, `CO[C@H]1CO[C@H]2[C@@H]1OC[C@H]2OC` [Dimethyl Isosorbide]: “Poor”; `OCC(O)CO` [Glycerin]: “Poor”; `CCCCCCCCCCCCCC(=O)NCCC[N+](C)(C)CC(O)CO.[Cl-]` (centres unmarked) [Myristamidopropyl PG-dimonium chloride]: “Poor”.
Still for that read-out and setting: next, `CCCCCCCC/C=C\CCCCCCCC[N+](C)(C)Cc1ccccc1.[Cl-]` [Olealkonium chloride]: “Poor”; `CCCCCCCCCCCC(=O)OC(C)C(=O)OC(C)C(=O)[O-].[Na+]` (centres unmarked) [Sodium Lauroyl Lactylate]: “Poor”; `CC(O)C(=O)O.CCCCCCCCCCCCCCCCCC(=O)NCCCN(C)C` [Stearamidopropyl dimethylamine lactate]: “Poor”.
For `CCO` [ethanol], the log reduction result with Serratia marcescens (1 inoculation/treatment cycle) is listed as “did provide efficacy”; with Serratia marcescens (5 inoculation/treatment cycles), “efficacy decreased”.
Regarding Alkyl Glucoside, in series [1], the “Foam Profile” value is “Poor”.
Same read-out and setting: next, “Cocamidopropyl PG-Dimonium Chloride Phosphate”: “Poor”; Glycereth-7 Cocoate: “Poor”; Glycereth-18 Ethylhexanoate: “Moderate”.
Still for that read-out and setting: as for Isostearamidopropyl Morpholine Lactate, the entry is “Poor”; as for Lauramine Oxide, “Poor”.
On the same count and under the same terms, as for POE-2 Coco Amine, the entry is “Poor”.
In the case of PPG-15 Stearyl Ether, the “Foam Profile” value in series [1] is given as “Poor”.
The same measure, in the same setting: as for Quaternium-26, the entry is “Poor”; as for Quaternium-92, “Poor”.
